Laboratory results from patent US20090203526A1, “METHOD OF CONTROLLING UNWANTED VEGETATION” (Arysta LifeScience North America, LLC, priority 2008, published 2009).

Tests used:
Type in all cases: in vivo
Settings in all cases: Site No. 1 (control site; g active/ha): Pre-emergent Glyphosate 450, Ammonium sulphate 1.12 kg/ha
Wild Oat [1] = assay: Example 6 field sites: visual % control of wild oat
Description: A study was conducted to test various application methods using flucarbazone-sodium (PREPARE) in a pre-emergent application followed by post-emergent application with clodinafop (DISCOVER® NG), pinoxaden (AXIAL™ XL) and flucarbazone-sodium (EVEREST®) for control of wild oat.
To better evaluate the ability of each treatment scheme in controlling unwanted vegetation in a planting site, a group of nearly identical crop planting sites (Site 1-Site 7) were subjected to different treatment schemes. Site No. 1 was to act as a control site and Site No. 2-Sites No. 7 were treated with a pre-emergent treatment or sequential pre-emergent and post-emergent treatment schemes. Treatment rates were based on the recommended rate provided on the product label (grams of active ingredient per hectare). Since the label provides a range, the rate applied is based on the lower recommended rate from the label range. […]
Site No. 1 was not treated with a pre-emergent or a post-emergent application of a herbicidally active compound according to embodiments of the present invention, allowing wild oat to emerge either with the crop or after crop emergence. […] Thus, percent control for wild oat was evaluated as the weed-free area in the particular site in comparison to the completely weed covered Site No. 1. […]

Bromus secalinus = assay: Example 7 field sites: visual % control of Cheat (Bromus secalinus)
Description: (§1) Another study was conducted to test various application methods using flucarbazone-sodium (PREPARE) in a pre-emergent application followed by post-emergent application with propoxycarbazone (OLYMPUS®), pyroxsulam (Simplicity®), sulfosulfuron ([…]®), pinoxaden (AXIAL™ XL) and flucarbazone-sodium (EVEREST®) to control Bromus secalinus and Foxtail Barley.
(§2) To better evaluate the ability of each treatment scheme in controlling unwanted vegetation in a planting site, a group of nearly identical crop planting sites (Site 1-Site 10) were subjected to different treatment schemes. Again, Site No. 1 was a control site. Sites No. 2-Sites No. 10 were treated with either a pre-emergent treatment or sequential pre-emergent and post-emergent treatment schemes. Treatment rates were based on the recommended lower rate provided on the product label (grams of active ingredient per hectare). […]
(§3) Site No. 1 was not treated with a pre-emergent treatment or a post-emergent treatment, allowing Bromus secalinus and Foxtail Barley to emerge either with the crop or after crop emergence. […] Thus, percent control for Bromus secalinus and Foxtail Barley were evaluated as the weed-free area in the particular site in comparison to the completely weed covered Site No. 1. […]

Foxtail Barley = assay: Example 7 field sites: visual % control of Foxtail Barley
Description: as §1, §2, §3

Wild Oat [2] = assay: Example 8 field sites: visual % control of Wild Oat
Description: Another study was conducted to test various application methods using flucarbazone-sodium (PrePare) in a pre-emergent application followed by post-emergent application with propoxycarbazone (OLYMPUS®), pyroxsulam (SIMPLICITY®), sulfosulfuron ([…]®), pinoxaden (AXIAL™ XL) and flucarbazone-sodium (EVEREST®) to control Wild Oat.
To better evaluate the ability of each treatment scheme in controlling unwanted vegetation in a planting site, a group of nearly identical crop planting sites (Site 1-Site 10) were subjected to different treatment schemes. Site No. 1 was again a control site and sites No. 2-Sites No. 10 were treated with varying treatment schemes. Again, the treatment rates were based on the recommended lower rate provided on the product label (grams of active ingredient per hectare). […]
Site No. 1 was not treated with a pre-emergent application or post-emergent application of herbicidally active compounds, allowing Wild Oat to emerge either with the crop or after crop emergence. […] Thus, percent control for Wild Oat was evaluated as the weed-free area in the particular site in comparison to the completely weed covered Site No. 1. Further, the respective crop yield for each crop planting site was also recorded. […]

crop = test system: crop
Description: Site No. 1 was again a control site and sites No. 2-Sites No. 10 were treated with varying treatment schemes. […] In all sites, any pre-existing weeds that germinated and grew to cover the sites were removed with glyphosate to ensure a more accurate determination of the viability of each treatment scheme. For Site No. 2-Site No. 10, glyphosate was tank-mixed with PREPARE and applied to each site prior to the emergence of the desired crop.
The remaining sites were allowed the same amount of time for weed growth and were visually compared to crop planting site (Site No. 1). […] Further, the respective crop yield for each crop planting site was also recorded.
Ammonium sulphate is a commercially available fertilizer blend used as an adjuvant to improve performance of glyphosate.

For `O=C(O)CNCP(=O)(O)O` [Glyphosate, glyphosate], the “% Control of Wild Oat at 89 days after application” value (Wild Oat [1]) was 0%, the “% Control of Cheat (Bromus secalinus) at 86 days after application” value (Bromus secalinus) was 5% and the “% Control of Foxtail Barley at 86 days after application” value (Foxtail Barley) was 0%. The “% Control of Wild Oat at 86 days after application” value (Wild Oat [2]) was 27% and the “Crop Yield” value (crop) was 20.1 Bu./Acre.
